Source: US8183234B2, “Tricyclic guanidine derivatives as sodium-proton exchange inhibitors” (Piramal Life Sciences Limited, priority 2004, dated 2012)

Q: For `CS(=O)(=O)O.CS(=O)(=O)O.Cc1cc(C(=O)NC(=N)N)cc2c1Oc1c(Cl)cc(N(CCN3CCCC3)C(=O)OCC(C)C)cc1CS2(=O)=O` [Example 74, (4-Chloro-8-guanidinocarbonyl-6-methyl-10,10-dioxo-10,11-dihydro-5-oxa-10lambda*6*-thia-dibenzo[a,d]cycloheptene-2-yl)-(2-pyrrolidin-1-yl-ethyl)-carbamic acid isobutylester dimesylate], which melting point is on record?
A: 198 to 200 °C

Q: With `CS(=O)(=O)O.CS(=O)(=O)O.Cc1cc(C(=O)NC(=N)N)cc2c1Oc1c(Cl)cc(N(CCN3CCCC3)C(=O)C3CC3)cc1CS2(=O)=O` [Example 76, Cyclopropanecarboxylic acid (4-chloro-8-guanidinocarbonyl-6-methyl-10,10-dioxo-10,11-dihydro-5-oxa-10lambda*6*-thia-dibenzo[a,d]cyclohepten-2-yl)-(2-pyrrolidin-1-yl-ethyl)-amide dimesylate] as the compound, how does the melting point read?
A: 178 to 179 °C

Q: Which melting point does the source give for `COCC(=O)N(CCN1CCCC1)c1cc(Cl)c2c(c1)CS(=O)(=O)c1cc(C(=O)NC(=N)N)cc(C)c1O2.CS(=O)(=O)O.CS(=O)(=O)O` [Example 77, N-(4-Chloro-8-guanidinocarbonyl-6-methyl-10,10-dioxo-10,11-dihydro-5-oxa-10lambda*6*-thia-dibenzo[a,d]cyclohepten-2-yl)-2-methoxy-N-(2-pyrrolidin-1-yl-ethyl)-acetamide dimesylate] here?
A: 204 to 206 °C

Q: Which melting point does the source give for `CS(=O)(=O)O.CS(=O)(=O)O.Cc1cc(C(=O)NC(=N)N)cc2c1Oc1c(Cl)cc(NCCNCCN3CCOCC3)cc1CS2(=O)=O` [Example 79, N-{4-Chloro-6-methyl-2-[2-(2-morpholin-4-yl-ethylamino)-ethylamino]-10,10-dioxo-10,11-dihydro-5-oxa-10lambda*6*-thia-dibenzo[a,d]cycloheptene-8-carbonyl}-guanidine dimesylate] here?
A: 255 to 256 °C

Q: With `CS(=O)(=O)O.CS(=O)(=O)O.CS(=O)(=O)O.Cc1cc(C(=O)NC(=N)N)cc2c1Oc1c(Cl)cc(NCCNCCc3ccccn3)cc1CS2(=O)=O` [Example 83, N-{4-Chloro-6-methyl-10,10-dioxo-2-[2-(2-pyridin-2-yl-ethylamino)-ethylamino]-10,11-dihydro-5-oxa-10lambda*6*-thia-dibenzo[a,d]cycloheptene-8-carbonyl}-guanidine trimesylate] as the compound, how does the melting point read?
A: 196 to 198 °C

Q: With `CS(=O)(=O)O.CS(=O)(=O)O.Cc1cc(C(=O)NC(=N)N)cc2c1Oc1c(Cl)cc(NCCNCc3cccs3)cc1CS2(=O)=O` [Example 86, N-(4-Chloro-6-methyl-10,10-dioxo-2-{2-[(thiophen-2-ylmethyl)-amino]-ethylamino}-10,11-dihydro-5-oxa-10lambda*6*thia-dibenzo[a,d]cycloheptene-8-carbonyl)-guanidine dimesylate] as the compound, how does the melting point read?
A: 243 to 245 °C

Q: Which melting point does the source give for `CCN(CCN(CC)c1cc(Cl)c2c(c1)CS(=O)(=O)c1cc(C(=O)NC(=N)N)cc(C)c1O2)Cc1cccs1.CS(=O)(=O)O.CS(=O)(=O)O` [Example 87, N-(4-Chloro-2-{ethyl-[2-(ethyl-thiophen-2-ylmethyl-amino)-ethyl]-amino}-6-methyl-10,10-dioxo-10,11-dihydro-5-oxa-10lambda*6*-thia-dibenzo[a,d]cycloheptene-8-carbonyl)-guanidine dimesylate] here?
A: 156 to 158 °C

Q: For `CS(=O)(=O)O.CS(=O)(=O)O.Cc1cc(C(=O)NC(=N)N)cc2c1Oc1c(Cl)cc(NCCNCc3ccccc3)cc1CS2(=O)=O` [Example 88, N-[2-(2-Benzylamino-ethylamino)-4-chloro-6-methyl-10,10-dioxo-10,11-dihydro-5-oxa-10lambda*6*-thia-dibenzo[a,d]cycloheptene-8-carbonyl]-guanidine dimesylate], which melting point is on record?
A: 232 to 233 °C

Q: With `COc1ccccc1CNCCNc1cc(Cl)c2c(c1)CS(=O)(=O)c1cc(C(=O)NC(=N)N)cc(C)c1O2.CS(=O)(=O)O.CS(=O)(=O)O` [Example 90, N-{4-Chloro-2-[2-(2-methoxy-benzylamino)-ethylamino]-6-methyl-10,10-dioxo-10,11-dihydro-5-oxa-10lambda*6*-thia-dibenzo[a,d]cycloheptene-8-carbonyl}-guanidine dimesylate] as the compound, how does the melting point read?
A: 224 to 225 °C

Q: Which melting point does the source give for `CS(=O)(=O)O.CS(=O)(=O)O.CS(=O)(=O)O.Cc1cc(C(=O)NC(=N)N)cc2c1Oc1c(Cl)cc(N(CCN3CCCCC3)C(=O)C3CC3)cc1CS2(=O)=O` [Example 95, Cyclopropanecarboxylic acid (4-chloro-8-guanidinocarbonyl-6-methyl-10,10-dioxo-10,11-dihydro-5-oxa-10lambda*6*-thia-dibenzo[a,d]cycloheptene-2-yl)-(2-piperidin-1-yl-ethyl)-amide trimesylate] here?
A: 276 °C

Q: For `CC(=O)N(CCN(C)C)c1cc(Cl)c2c(c1)CS(=O)(=O)c1cc(C(=O)NC(=N)N)cc(C)c1O2.CS(=O)(=O)O.CS(=O)(=O)O.CS(=O)(=O)O` [Example 100, N-(4-Chloro-8-guanidinocarbonyl-6-methyl-10,10-dioxo-10,11-dihydro-5-oxa-10lambda*6*-thia-dibenzo[a,d]cyclohepten-2-yl)-N-(2-dimethylamino-ethyl)-acetamide trimesylate], which melting point is on record?
A: 128 to 130 °C

Q: With `CS(=O)(=O)O.CS(=O)(=O)O.Cc1cc(C(=O)NC(=N)N)cc2c1Oc1c(Cl)cc(N(CCN(C)C)C(=O)C(C)(C)C)cc1CS2(=O)=O` [Example 101, N-(4-Chloro-8-guanidinocarbonyl-6-methyl-10,10-dioxo-10,11-dihydro-5-oxa-10lambda*6*-thia-dibenzo[a,d]cyclohepten-2-yl)-N-(2-dimethylamino-ethyl)-2,2-dimethyl-propionamide dimesylate] as the compound, how does the melting point read?
A: 171 to 173 °C

Q: For `CS(=O)(=O)O.CS(=O)(=O)O.CS(=O)(=O)O.Cc1cc(C(=O)NC(=N)N)cc2c1Oc1c(Cl)cc(N3CCNCC3)cc1CS2(=O)=O` [Example 104, N-(4-Chloro-6-methyl-10,10-dioxo-2-piperazin-1-yl-10,11-dihydro-5-oxa-10lambda*6*-thia-dibenzo[a,d]cycloheptene-8-carbonyl)-guanidine trimesylate], which melting point is on record?
A: 203 to 205 °C

Q: For `CCCCCCCCCCN1CCN(c2cc(Cl)c3c(c2)CS(=O)(=O)c2cc(C(=O)NC(=N)N)cc(C)c2O3)CC1.CS(=O)(=O)O.CS(=O)(=O)O` [Example 105, N-[4-Chloro-2-(4-decyl-piperazin-1-yl)-6-methyl-10,10-dioxo-10,11-dihydro-5-oxa-10lambda*6*-thia-dibenzo[a,d]cycloheptene-8-carbonyl]-guanidine dimesylate], which melting point is on record?
A: 184 to 185 °C

Q: Which melting point does the source give for `CCCCCN1CCN(c2cc(Cl)c3c(c2)CS(=O)(=O)c2cc(C(=O)NC(=N)N)cc(C)c2O3)CC1.CS(=O)(=O)O.CS(=O)(=O)O` [Example 106, N-[4-Chloro-6-methyl-10,10-dioxo-2-(4-pentyl-piperazin-1-yl)-10,11-dihydro-5-oxa-10-lambda*6*-thia-dibenzo[a,d]cycloheptene-8-carbonyl]-guanidine dimesylate] here?
A: 250 to 251 °C

Q: With `CS(=O)(=O)O.CS(=O)(=O)O.Cc1cc(C(=O)NC(=N)N)cc2c1Oc1c(Cl)cc(N3CCN(C(=O)c4ccc[nH]4)CC3)cc1CS2(=O)=O` [Example 110, N-{4-Chloro-6-methyl-10,10-dioxo-2-[4-(1H-pyrrole-2-carbonyl)-piperazin-1-yl]-10,11-dihydro-5-oxa-10lambda*6*-thia-dibenzo[a,d]cycloheptene-8-carbonyl}-guanidine dimesylate] as the compound, how does the melting point read?
A: 306 to 307 °C

Q: For `CCN1CCN(c2cc(Cl)c3c(c2)CS(=O)(=O)c2cc(C(=O)NC(=N)N)cc(C)c2O3)CC1.CS(=O)(=O)O.CS(=O)(=O)O` [Example 116, N-[4-Chloro-2-(4-ethyl-piperazin-1-yl)-6-methyl-10,10-dioxo-10,11-dihydro-5-oxa-10lambda*6*-thia-dibenzo[a,d]cycloheptene-8-carbonyl]-guanidine dimesylate], which melting point is on record?
A: 255 to 257 °C

Q: For `CS(=O)(=O)O.CS(=O)(=O)O.CS(=O)(=O)O.Cc1cc(C(=O)NC(=N)N)cc2c1Oc1c(Cl)cc(N3CCN(CCN(C)C)CC3)cc1CS2(=O)=O` [Example 119, N-{4-Chloro-2-[4-(2-dimethylamino-ethyl)-piperazin-1-yl]-6-methyl-10,10-dioxo-10,11-dihydro-5-oxa-10lambda*6*-thia-dibenzo[a,d]cycloheptene-8-carbonyl}-guanidine trimesylate], which melting point is on record?
A: 243 to 245 °C

Q: Which melting point does the source give for `CS(=O)(=O)O.CS(=O)(=O)O.CS(=O)(=O)O.Cc1cc(C(=O)NC(=N)N)cc2c1Oc1c(Cl)cc(N3CCN(CCN4CCOCC4)CC3)cc1CS2(=O)=O` [Example 121, N-{4-Chloro-6-methyl-2-[4-(2-morpholin-4-yl-ethyl)-piperazin-1-yl]-10,10-dioxo-10,11-dihydro-5-oxa-10lambda*6*-thia-dibenzo[a,d]cycloheptene-8-carbonyl}-guanidine trimesylate] here?
A: 185 to 187 °C

Q: Which melting point does the source give for `CS(=O)(=O)O.CS(=O)(=O)O.Cc1cc(C(=O)NC(=N)N)cc2c1Oc1c(Cl)cc(N3CCN(CC4CC4)CC3)cc1CS2(=O)=O` [Example 123, N-[4-Chloro-2-(4-cyclopropylmethyl-piperazin-1-yl)-6-methyl-10,10-dioxo-10,11-dihydro-5-oxa-10lambda*6*-thia-dibenzo[a,d]cycloheptene-8-carbonyl]-guanidine dimesylate] here?
A: 282 to 287 °C

Q: For `CS(=O)(=O)O.CS(=O)(=O)O.CS(=O)(=O)O.CS(=O)(=O)O.Cc1cc(C(=O)NC(=N)N)cc2c1Oc1c(Cl)cc(N3CCN(CCN4CCNCC4)CC3)cc1CS2(=O)=O` [Example 124, N-{4-Chloro-6-methyl-10,10-dioxo-2-[4-(2-piperazin-1-yl-ethyl)-piperazin-1-yl)-10,11-dihydro-5-oxa-10lambda*6*-thia-dibenzo[a,d]cycloheptene-8-carbonyl}-guanidine tetramesylate], which melting point is on record?
A: 182 to 184 °C

Q: With `CS(=O)(=O)O.CS(=O)(=O)O.Cc1cc(C(=O)NC(=N)N)cc2c1Oc1c(Cl)cc(N3CCN(C4CC4)CC3)cc1CS2(=O)=O` [Example 125, N-[4-Chloro-2-(4-cyclopropyl-piperazin-1-yl)-6-methyl-10,10-dioxo-10,11-dihydro-5-oxa-10lambda*6*-thia-dibenzo[a,d]cycloheptene-8-carbonyl]-guanidine dimesylate] as the compound, how does the melting point read?
A: 245 to 248 °C
